Test results reported in PMC9203742 (Nature Communications, 2022).
Values joined by “and” are separate entries in the source; they are usually repeats but may differ in a detail not shown here. Identical values can stand only once.

Columns and labels:
WT mGlu1 = biological target: T1, WT mGlu1 (Rattus norvegicus, UniProt P23385); assay type: cell-based; note: test concentration or dose not given here
T1 construct: expressed in transfected cells; host or cells: HEK293

mGlu1 P58H/N264H mutant = biological target: T2, mGlu1 P58H/N264H mutant (Rattus norvegicus, UniProt P23385, N264H/P58H); test: Fura-2 Ca2+ imaging in HEK293 cells expressing mGlu1 P58H/N264H; assay type: cell-based
T2 construct: expressed in transfected cells; host or cells: HEK293

mGlu1 A59H/N264H mutant = biological target: T3, mGlu1 A59H/N264H mutant (Rattus norvegicus, UniProt P23385, A59H/N264H); test: Fura-2 Ca2+ imaging in HEK293 cells expressing mGlu1 A59H/N264H; assay type: cell-based
T3 construct: expressed in transfected cells; host or cells: HEK293

mGlu1 K61H/N264H mutant = biological target: T4, mGlu1 K61H/N264H mutant (Rattus norvegicus, UniProt P23385, K61H/N264H); test: Fura-2 Ca2+ imaging in HEK293 cells expressing mGlu1 K61H/N264H; assay type: cell-based
T4 construct: expressed in transfected cells; host or cells: HEK293

mGlu1 P57H/N264H mutant = biological target: T5, mGlu1 P57H/N264H mutant (Rattus norvegicus, UniProt P23385, N264H/P57H); test: Fura-2 Ca2+ imaging in HEK293 cells expressing mGlu1 P57H/N264H; assay type: cell-based
T5 construct: expressed in transfected cells; host or cells: HEK293

mGlu1 E60H/N264H mutant = biological target: T6, mGlu1 E60H/N264H mutant (Rattus norvegicus, UniProt P23385, E60H/N264H); test: Fura-2 Ca2+ imaging in HEK293 cells expressing mGlu1 E60H/N264H; assay type: cell-based
T6 construct: expressed in transfected cells; host or cells: HEK293

[1] = test system: HEK293 cells, vector control; test: Fura-2 Ca2+ imaging in HEK293 cells transfected with control vector (Vec); assay type: cell-based; conditions: single-cell values #1-#20; for Ca2+ response of individual cells (source data Suppl Fig1), Vec: test concentration or dose not given here
[2] = test system: mGlu1 construct not given; test: Fura-2 Ca2+ imaging in HEK293 cells, source data Suppl Fig1, left group (c0-c8); construct not given; assay type: cell-based, rat; conditions: single-cell values, cells #15-#20; left group of third block
Text: (§1) Supplement 41467_2022_30828_MOESM6_ESM.zip/Ojima et al_source data_Suppl Fig.xlsx, sheet "Suppl Fig1" | column: Glu; NiCl2; CuCl2; ZnCl2; CdCl2; Na2PdCl2; Pd(bpy)

[3] = test system: HEK293 cells, vector control; test: Fura-2 Ca2+ imaging in HEK293 cells transfected with control vector (Vec); assay type: cell-based; conditions: Fig.1e; for Ca2+ response of individual cells (source data Suppl Fig1), Vec: test concentration or dose not given here
Text: Supplement 41467_2022_30828_MOESM6_ESM.zip/Ojima et al_source data_Main Figure.xlsx, sheet "Fig.1e" | column: Vec

mGlu1 A59H/A265H mutant [4] = biological target: T7, mGlu1 A59H/A265H mutant (Rattus norvegicus, UniProt P23385, A265H/A59H); test: Fura-2 Ca2+ imaging in HEK293 cells expressing mGlu1 A59H/A265H; assay type: cell-based; conditions: single-cell values
T7 construct: expressed in transfected cells; host or cells: HEK293

[5] = test system: mGlu1 construct not given; test: Fura-2 Ca2+ imaging in HEK293 cells, source data Suppl Fig1, middle group (c9-c17); construct not given; assay type: cell-based, rat; conditions: single-cell values, cells #15-#20; middle group of third block
Text: as §1

mGlu1 A59H/A265H mutant [6] = biological target: T7, mGlu1 A59H/A265H mutant; test: Fura-2 Ca2+ imaging in HEK293 cells expressing mGlu1 A59H/A265H; assay type: cell-based; conditions: Fig.1e
mGlu1 A59H/G266H mutant [7] = biological target: T8, mGlu1 A59H/G266H mutant (Rattus norvegicus, UniProt P23385, A59H/G266H); test: Fura-2 Ca2+ imaging in HEK293 cells expressing mGlu1 A59H/G266H; assay type: cell-based; conditions: single-cell values; for Ca2+ response (delta ratio), A59H/G266H: test concentration or dose not given here
T8 construct: expressed in transfected cells; host or cells: HEK293

[8] = test system: mGlu1 construct not given; test: Fura-2 Ca2+ imaging in HEK293 cells, source data Suppl Fig1, right group (c18-c26); construct not given; assay type: cell-based, rat; conditions: single-cell values, cells #15-#20; right group of third block
Text: as §1

mGlu1 A59H/G266H mutant [9] = biological target: T8, mGlu1 A59H/G266H mutant; test: Fura-2 Ca2+ imaging in HEK293 cells expressing mGlu1 A59H/G266H; assay type: cell-based; conditions: Fig.1e

T4 sequence (P23385 19-1199 K61H/N264H): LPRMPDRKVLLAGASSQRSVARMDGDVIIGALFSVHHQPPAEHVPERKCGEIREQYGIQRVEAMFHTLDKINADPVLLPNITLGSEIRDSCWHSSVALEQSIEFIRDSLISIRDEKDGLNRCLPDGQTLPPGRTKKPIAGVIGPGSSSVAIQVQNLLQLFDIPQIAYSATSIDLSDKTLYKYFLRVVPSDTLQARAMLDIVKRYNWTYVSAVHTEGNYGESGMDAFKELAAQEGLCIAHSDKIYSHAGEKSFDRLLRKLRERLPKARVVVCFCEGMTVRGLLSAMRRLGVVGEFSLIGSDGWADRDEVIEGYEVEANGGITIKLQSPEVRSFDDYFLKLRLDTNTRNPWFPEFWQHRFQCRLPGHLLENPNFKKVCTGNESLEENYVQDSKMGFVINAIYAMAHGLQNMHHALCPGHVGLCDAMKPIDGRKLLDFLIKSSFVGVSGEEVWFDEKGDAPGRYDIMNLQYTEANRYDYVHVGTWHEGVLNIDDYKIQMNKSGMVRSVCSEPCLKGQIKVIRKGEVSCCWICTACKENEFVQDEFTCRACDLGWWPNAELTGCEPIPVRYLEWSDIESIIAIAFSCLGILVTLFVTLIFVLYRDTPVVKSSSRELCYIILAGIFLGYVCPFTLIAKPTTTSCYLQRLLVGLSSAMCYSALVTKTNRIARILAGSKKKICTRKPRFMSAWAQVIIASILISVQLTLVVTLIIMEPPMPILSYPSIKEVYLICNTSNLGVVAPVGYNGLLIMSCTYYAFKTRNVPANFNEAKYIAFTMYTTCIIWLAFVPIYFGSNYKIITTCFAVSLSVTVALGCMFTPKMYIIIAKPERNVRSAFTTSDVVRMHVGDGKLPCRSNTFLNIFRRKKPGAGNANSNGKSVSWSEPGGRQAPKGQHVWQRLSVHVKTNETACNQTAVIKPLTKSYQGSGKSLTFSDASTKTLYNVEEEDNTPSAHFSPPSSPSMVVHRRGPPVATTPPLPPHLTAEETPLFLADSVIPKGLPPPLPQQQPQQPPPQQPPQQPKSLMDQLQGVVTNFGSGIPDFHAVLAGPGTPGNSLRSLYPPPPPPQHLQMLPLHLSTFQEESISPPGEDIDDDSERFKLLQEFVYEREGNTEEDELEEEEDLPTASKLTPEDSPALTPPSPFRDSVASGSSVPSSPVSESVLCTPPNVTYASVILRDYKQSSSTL
T1 sequence (P23385 19-1199): as the sequence (P23385 19-1199 K61H/N264H) above, with H43K, H246N counted along it
T2 sequence (P23385 19-1199 P58H/N264H): as the sequence (P23385 19-1199 K61H/N264H) above, with P40H, H43K counted along it
T7 sequence (P23385 19-1199 A59H/A265H): as the sequence (P23385 19-1199 K61H/N264H) above, with A41H, H43K, H246N, A247H counted along it
T8 sequence (P23385 19-1199 A59H/G266H): as the sequence (P23385 19-1199 K61H/N264H) above, with A41H, H43K, H246N, G248H counted along it
T6 sequence (P23385 19-1199 E60H/N264H): as the sequence (P23385 19-1199 K61H/N264H) above, with E42H, H43K counted along it
T5 sequence (P23385 19-1199 P57H/N264H): as the sequence (P23385 19-1199 K61H/N264H) above, with P39H, H43K counted along it
T3 sequence (P23385 19-1199 A59H/N264H): as the sequence (P23385 19-1199 K61H/N264H) above, with A41H, H43K counted along it

`[Cl-].[Cl-].[Zn+2]` [ZnCl2] was tested, and the “Ca2+ response (delta ratio), WT” value (WT mGlu1; Fig.1e) was 0.00492, the “Ca2+ response of individual cells (source data Suppl Fig1), WT” value (WT mGlu1; single-cell values #1-#20, WT) was -0.0004923 and -0.006346 and -0.007608 and 0.01052 and -0.003585 and 0.007785 and 0.05315 and -0.005223 and -0.002885 and -0.002892 and -0.004792 and -0.003569 and 0.002877 and -0.04019 and -0.002708 and -0.06293 and -0.001754 and 0.176 and -0.006623 and -0.0003538 and the “Ca2+ response (delta ratio), P58H/N264H” value (mGlu1 P58H/N264H mutant; Fig.1e) was -0.00161. For the same molecule, the “Ca2+ response of individual cells (source data Suppl Fig1), P58H/N264H” value (mGlu1 P58H/N264H mutant; single-cell values #1-#20, P58H/N264H) was -0.01858 and -0.04214 and -0.01035 and -0.0081 and -0.006638 and 0.08488 and -0.007315 and -0.007238 and -0.01048 and -0.008431 and -0.001785 and 0.004277 and -0.0127 and -0.01994 and 0.003692 and 0.002931 and 0.009408 and 0.02135 and 0.0149 and -0.01995, the “Ca2+ response (delta ratio), A59H/N264H” value (mGlu1 A59H/N264H mutant; Fig.1e) was 0.00725 and the “Ca2+ response of individual cells (source data Suppl Fig1), A59H/N264H” value (mGlu1 A59H/N264H mutant; single-cell values #1-#20, A59H/N264H) was -0.01136 and 0.3757 and -0.01768 and -0.004631 and 0.0006077 and -0.008377 and -0.02044 and 0.005169 and -0.005323 and -0.01275 and -0.1876 and -0.01388 and 0.06164 and -0.009792 and -0.01495 and -0.03905 and -8.46E-05 and 0.03053 and 0.01748 and -0.0002154. The “Ca2+ response (delta ratio), K61H/N264H” value (mGlu1 K61H/N264H mutant; Fig.1e) was 0.01018, the “Ca2+ response of individual cells (source data Suppl Fig1), K61H/N264H” value (mGlu1 K61H/N264H mutant; single-cell values, K61H/N264H) was 0.0106 and 0.02204 and -0.0158 and -0.01138 and -0.0001308 and -0.01253 and -0.01344 and 0.3114 and -0.05129 and -0.02739 and -0.01424 and -0.005346 and 0.09999 and -0.01502 and the “Ca2+ response (delta ratio), P57H/N264H” value (mGlu1 P57H/N264H mutant; Fig.1e) was -0.002972. For the same molecule, the “Ca2+ response of individual cells (source data Suppl Fig1), P57H/N264H” value (mGlu1 P57H/N264H mutant; single-cell values #1-#20, P57H/N264H) was -0.0004538 and -0.005931 and -0.01735 and 0.02302 and 0.0025 and -0.02347 and -0.004954 and -0.01065 (2×) and 0.01802 and -0.01439 and 0.007646 and -0.01182 and 0.0001154 and -0.0004462 and -0.009846 and 0.01085 and 0.0122 and -0.009315 and -0.01449, the “Ca2+ response (delta ratio), E60H/N264H” value (mGlu1 E60H/N264H mutant; Fig.1e) was -0.009416 and the “Ca2+ response of individual cells (source data Suppl Fig1), E60H/N264H” value (mGlu1 E60H/N264H mutant; single-cell values #1-#20, E60H/N264H) was -0.005892 and -0.03255 and -0.003646 and -0.02008 and -0.003615 and 0.05645 and 0.08788 and -0.01442 and -0.01449 and -0.04369 and -0.008223 and -0.02082 and -0.01922 and -0.01408 and -0.01929 and -0.02112 and -0.02071 and -0.02984 and -0.03302 and -0.007923. The “Ca2+ response of individual cells (source data Suppl Fig1), Vec” value [1] was -0.02208 and -0.02062 and -0.01588 and -0.01264 and 0.0006769 and -0.01746 and -1.54E-05 and -0.004454 and -0.02104 and -0.008908 and -0.02662 and 0.006915 and 0.02477 and 0.001469 and -0.01177 and -0.03347 and -0.02945 and -0.01742 and 0.01306 and -0.02001, the “Ca2+ response of individual cells (source data, sheet Suppl Fig1)” value [2] was -0.009 and -0.001631 and -0.01245 and -0.02388 and -0.01824 and -0.008531 and the “Ca2+ response (delta ratio), Vec” value [3] was -0.01075. The “Ca2+ response of individual cells (source data Suppl Fig1), A59H/A265H” value (mGlu1 A59H/A265H mutant [4]) was 0.02775 and 0.01526 and -0.01 and -0.0009538 and -0.04594 and 0.01742 and 0.01817 and 0.02166 and -0.009515 and -0.04688 and 0.04091 and -0.03576 and 0.04018 and -0.001815, the “Ca2+ response of individual cells (source data, sheet Suppl Fig1)” value [5] was -0.0199 and 0.02527 and 0.05882 and -0.05132 and 0.1351 and 0.01718 and the “Ca2+ response (delta ratio), A59H/A265H” value (mGlu1 A59H/A265H mutant [6]) was 0.009782. For the same molecule, the “Ca2+ response of individual cells (source data Suppl Fig1), A59H/G266H” value (mGlu1 A59H/G266H mutant [7]) was -0.005723 and -0.01571 and -0.007938 and -0.01115 and -0.002308 and 0.008723 and -0.07331 and -0.0327 and -0.004923 and 0.01074 and -0.0004923 and -0.02615 and -0.03942 and 0.04141, the “Ca2+ response of individual cells (source data, sheet Suppl Fig1)” value [8] was -0.02524 and -0.001377 and -0.01992 and 0.004231 and -0.03185 and -0.008431 and the “Ca2+ response (delta ratio), A59H/G266H” value (mGlu1 A59H/G266H mutant [9]) was -0.01208.
